The record followed here is ChEMBL document CHEMBL6134780, “Halogenated retinoid derivatives as dual RARα and RXRα modulators for treating acute promyelocytic leukemia cells” (Eur J Med Chem, 2024).

The target of experiment [1] is T1, Retinoic acid receptor alpha (Homo sapiens) (UniProt P10276).
T1 sequence (whole entry): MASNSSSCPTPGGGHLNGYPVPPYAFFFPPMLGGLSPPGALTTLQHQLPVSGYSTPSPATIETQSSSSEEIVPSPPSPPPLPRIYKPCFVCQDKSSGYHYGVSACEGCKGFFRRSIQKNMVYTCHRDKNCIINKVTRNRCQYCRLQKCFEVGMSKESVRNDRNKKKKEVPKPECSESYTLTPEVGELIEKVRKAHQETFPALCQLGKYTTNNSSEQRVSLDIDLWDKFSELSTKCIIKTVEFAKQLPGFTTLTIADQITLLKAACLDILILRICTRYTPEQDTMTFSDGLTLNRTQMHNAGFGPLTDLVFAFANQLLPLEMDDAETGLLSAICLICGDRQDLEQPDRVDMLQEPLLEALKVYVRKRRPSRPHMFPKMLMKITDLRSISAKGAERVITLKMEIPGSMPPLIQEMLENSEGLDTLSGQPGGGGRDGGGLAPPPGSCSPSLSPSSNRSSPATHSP
Description: Agonist activity at full length RARalpha LBD (unknown origin) transfected in HEK293T cells co-transfected with pG5luc reporter and Renilla-luc assessed as transactivation at 0.5 to 1 uM incubated for 12 hrs by luciferase reporter gene assay. The following applies: filed as agonist, dose 0.5-1 µM. The class given is cell-based. A general note: A reporter such as luciferase makes a cellular process visible.

Experiment [2] deals with NB-4. The experiment in a line: Induction of apoptosis in human NB4 cells assessed as early apoptotic cells at 1 uM incubated for 24 hrs by Annexin V-FITC/PI staining based flow cytometric analysis (reference value: 1.77 %). The format is functional.
Experiment [3] concerns NB-4. Description: Cell cycle arrest in human NB4 cells assessed as accumulation of cells at G0/G1 phase at 1 uM incubated for 12 hrs by DAPI staining based flow cytometric analysis (reference value: 51 %). The class given is functional. (In flow cytometry, cells or beads pass a laser one at a time.)
Experiment [4] can be described thus: Induction of apoptosis in human ATRA-resistant NB4-LR2 cells assessed as late apoptotic cells at 1 uM incubated for 24 hrs by Annexin V-FITC/PI staining based flow cytometric analysis (reference value: 5.62 %). The format is functional.
Experiment [5] deals with NB-4. Description: Induction of apoptosis in human NB4 cells assessed as late apoptotic cells at 1 uM incubated for 24 hrs by Annexin V-FITC/PI staining based flow cytometric analysis (reference value: 2.23 %). The format is functional.
For experiment [6], the system named is NB-4. Description: Antiproliferative activity against human NB4 cells assessed as inhibition of cell viability incubated for 3 days by CCK8 assay. The class given is functional, cell-based. Particulars: dose <= 3.5 µM, time 3.0 day. A general note: Tetrazolium assays rely on reduction of a dye to a coloured formazan, in cell work by metabolically active cells; call rule not given here.

Experiment [7] deals with NB-4. Description: Antiproliferative activity against human NB4 cells assessed as inhibition of cell viability up to 2 uM incubated for 3 days by CCK8 assay relative to control. The class given is functional. The following applies: time 3 day.
A short description of experiment [8]: Cell cycle arrest in human ATRA-resistant NB4-LR2 cells assessed as accumulation of cells at sub-G1 phase at 1 uM incubated for 12 hrs by DAPI staining based flow cytometric analysis (reference value: 18 %). The format is functional.
Experiment [9] can be described thus: Induction of apoptosis in human ATRA-resistant NB4-LR2 cells assessed as early apoptotic cells at 1 uM incubated for 24 hrs by Annexin V-FITC/PI staining based flow cytometric analysis (reference value: 1.41 %). The format is functional.
The subject of experiment [10] is NB-4. Description: Cell cycle arrest in human NB4 cells assessed as accumulation of cells at G2/M phase at 1 uM incubated for 12 hrs by DAPI staining based flow cytometric analysis (reference value: 26 %). The format is functional.
Experiment [11] relates to NB-4. The experiment in a line: Cell cycle arrest in human NB4 cells assessed as accumulation of cells at S phase at 1 uM incubated for 12 hrs by DAPI staining based flow cytometric analysis (reference value: 20 %). The class given is functional.
The test system of experiment [12] is NB-4. The experiment in a line: Antiproliferative activity against human NB4 cells assessed as inhibition of cell viability at 0.125 uM incubated for 3 days by CCK8 assay relative to control. The format is functional. The following applies: NB-4, 72 h, time 3 day.
A short description of experiment [13]: Cell cycle arrest in human ATRA-resistant NB4-LR2 cells assessed as accumulation of cells at G2/M phase at 1 uM incubated for 12 hrs by DAPI staining based flow cytometric analysis (reference value: 28 %). The format is functional.
Experiment [14] in a line: Cell cycle arrest in human ATRA-resistant NB4-LR2 cells assessed as accumulation of cells at S phase at 1 uM incubated for 12 hrs by DAPI staining based flow cytometric analysis (reference value: 12 %). The format is functional.
Experiment [15] can be described thus: Cell cycle arrest in human ATRA-resistant NB4-LR2 cells assessed as accumulation of cells at G0/G1 phase at 1 uM incubated for 12 hrs by DAPI staining based flow cytometric analysis (reference value: 42 %). The format is functional.
Experiment [16] has as its system NB-4. Description: Induction of cell differentiation in human NB4 cells assessed as NBT positive cells at 0.5 uM incubated for 6 days by Nitro Blue tetrazolium chloride based microscopic analysis (reference value: 0 %). The format is functional. The following applies: time 6 day.
In experiment [17] the test system is NB-4. The experiment in a line: Cell cycle arrest in human NB4 cells assessed as accumulation of cells at sub-G1 phase at 1 uM incubated for 12 hrs by DAPI staining based flow cytometric analysis (reference value: 2 %). The class given is functional.
Experiment [18] addresses Retinoic acid receptor RXR-alpha (Homo sapiens, UniProt P19793). The experiment in a line: Binding affinity to N-terminal His-tagged human RXRalpha LBD extracted from Escherichia coli BL21 (DE3) cells assessed as dissociation constant by fluorescence quenching assay.

Chain of Retinoic acid receptor RXR-alpha (P19793 whole entry, the tested form may be a part): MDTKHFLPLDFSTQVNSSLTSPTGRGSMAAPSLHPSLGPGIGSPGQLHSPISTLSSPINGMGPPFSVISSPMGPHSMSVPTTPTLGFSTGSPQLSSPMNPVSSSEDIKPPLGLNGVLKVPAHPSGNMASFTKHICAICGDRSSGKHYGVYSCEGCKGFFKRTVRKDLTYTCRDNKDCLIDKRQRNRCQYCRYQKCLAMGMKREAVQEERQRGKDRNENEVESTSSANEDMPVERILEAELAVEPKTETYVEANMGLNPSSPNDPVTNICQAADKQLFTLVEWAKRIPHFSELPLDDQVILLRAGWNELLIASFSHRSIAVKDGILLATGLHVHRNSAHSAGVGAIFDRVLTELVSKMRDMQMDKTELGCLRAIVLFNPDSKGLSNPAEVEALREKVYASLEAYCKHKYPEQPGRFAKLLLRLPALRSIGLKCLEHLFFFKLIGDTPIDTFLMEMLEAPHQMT

By inhibition is commonly meant the share of the control response that was lost under treatment. For `Cc1cc2c(cc1C(=O)/C(Cl)=C/c1ccc(C(=O)O)cc1)C(C)(C)CCC2(C)C`, the Activity entry in experiment [1] was “Active; Highly Raralpha Selective Agonistic Activity Observed”; in the experiment on NB-4 [2], 27.43%; in the experiment on NB-4 [3], 43%; in [4] it was 17.39%; with NB-4 [5], 21.24%; in the experiment on NB-4 [6], “Dose-dependent-effect”. Moreover, the Activity in [8] worked out at 19%; in [9] it was 24.72%; in the experiment on NB-4 [10], 41%; with NB-4 [11], 12%; in [13] it was 66%; in experiment [14] it was 8%. Moreover, the results for the Activity (in [15]; with NB-4 [16]; in the experiment with NB-4 [17]) were 7%, 15% and 4%, respectively. Besides, the “inhibition (INH)” value in the experiment with NB-4 [7] came out at 100%. The inhibition at 0.125 µM with NB-4 [12] is around 10%.
One may read the Kd as a measure of binding affinity in units of concentration. Take `Cc1cc2c(cc1-c1cc(/C=C/C(=O)O)ccc1O)C(C)(C)CCC2(C)C`: in [18], the Kd worked out at 549 nM.
